# Tested on: HBV
# Test: HBV infection in HepG2-NTCP cells (HBeAg AlphaLISA in supernatants)
# Assay type: cell-based
# Conditions: Hepatitis B virus, 192 h; HBV infection of HepG2-NTCP cells; HBeAg in supernatants at day 8 post infection; read-out: Cellular EC50
# How it was run: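 HepG2-NTCP A3 cells were pre-incubated 2 h with 3-fold serially diluted compounds, then infected with HBV at 2000 GE/cell with 4% PEG (0.5% DMSO final). After washing on day 1, cells stayed in 2.5% DMSO medium; supernatant HBeAg measured by AlphaLISA on day 8, EC50 versus DMSO controls.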
row,Structure (SMILES),EC50 [nM]
1,CCCCC1CN(c2ccccc2)c2cc(CN3CCCCC3)c(-c3ccc(F)c(C(=O)O)c3)cc2S(=O)(=O)N1C (stereo not shown) [Example 564],100 to 1000
2,CCCCC1CN(c2ccccc2)c2cc(CNc3ccccc3F)c(-c3ccc(F)c(C(=O)O)c3)cc2S(=O)(=O)N1C (stereo not shown) [Example 565],100 to 1000
3,"CCCC[C@@H]1CN(c2ccccc2)c2cc(C)c(-c3ccc(F)c(C(=O)O)c3)cc2S(=O)(=O)N1C [Example 566, (R)-5-(3-butyl-2,7-dimethyl-1,1-dioxido-5-phenyl-2,3,4,5-tetrahydrobenzo[f][1,2,5]thiadiazepin-8-yl)-2-fluorobenzoic acid]",100 to 1000
4,CCCC[C@@H]1CN(c2ccccc2)c2cc(C)c(-c3ccc(Cl)c(C(=O)O)c3)cc2S(=O)(=O)N1C [Example 567],100 to 1000
5,"CCCCC1CN(c2ccccc2)c2cc(C(F)(F)F)c(-c3ccc(F)c(C(=O)O)c3)cc2S(=O)(=O)N1C (stereo not shown) [Example 568, 5-(3-butyl-2-methyl-1,1-dioxido-5-phenyl-7-(trifluoromethyl)-2,3,4,5-tetrahydrobenzo[f][1,2,5]thiadiazepin-8-yl)-2-fluorobenzoic acid]",100 to 1000
6,CN1[C@H](C2CCCCC2)CNc2cc(-c3ccncc3)c(-c3ccc(F)c(C(=O)O)c3)cc2S1(=O)=O [Example 570],> 1000
7,CN1[C@H](C2CCCCC2)CNc2cc(-c3ccoc3)c(-c3ccc(F)c(C(=O)O)c3)cc2S1(=O)=O [Example 571],100 to 1000
8,CN1[C@H](C2CCCCC2)CNc2cc(-c3cccnc3)c(-c3ccc(F)c(C(=O)O)c3)cc2S1(=O)=O [Example 572],100 to 1000
9,CC(C)C[C@@H]1CN(c2ccccc2)c2cc(-c3cccc(NC=O)c3O)c(-c3ccc(F)c(C(=O)O)c3)cc2S(=O)(=O)N1C [Example 577],> 1000
10,CC(C)C[C@@H]1CN(c2ccccc2)c2cc(-c3cccc4ncoc34)c(-c3ccc(F)c(C(=O)O)c3)cc2S(=O)(=O)N1C [Example 578],100 to 1000
11,CC(C)C[C@@H]1CN(c2ccccc2)c2cc(-c3ccc4ncoc4c3)c(-c3ccc(F)c(C(=O)O)c3)cc2S(=O)(=O)N1C [Example 579],100 to 1000
12,CN1C[C@@H](C2CCCCC2)N(C)S(=O)(=O)c2cc(-c3ccc(F)c(C(=O)O)c3)c(-c3ccccc3F)cc21 [Example 581],100 to 1000
13,"CN1C[C@@H](C2CCCCC2)N(C)S(=O)(=O)c2cc(-c3ccc(F)c(C(=O)O)c3)c(Cl)cc21 [Example 582, (R)-5-(7-chloro-3-cyclohexyl-2,5-dimethyl-1,1-dioxido-2,3,4,5-tetrahydrobenzo[f][1,2,5]thiadiazepin-8-yl)-2-fluorobenzoic acid]",100 to 1000
14,"CN1[C@H](C2CCCCC2)CN(c2ccccc2)c2cc(C3CC3)c(-c3cc(F)c(F)c(C(=O)O)c3)cc2S1(=O)=O [Example 583, (R)-5-(3-cyclohexyl-7-cyclopropyl-2-methyl-1,1-dioxido-5-phenyl-2,3,4,5-tetrahydrobenzo[f][1,2,5]thiadiazepin-8-yl)-2,3-difluorobenzoic acid]",100 to 1000
15,"CN1[C@H](C2CCCCC2)CNc2cc(C3CCN(C(=O)OC(C)(C)C)CC3)c(-c3ccc(F)c(C(=O)O)c3)cc2S1(=O)=O [Example 584, (R)-5-(7-(1-(tert-butoxycarbonyl)piperidin-4-yl)-3-cyclohexyl-2-methyl-1,1-dioxido-2,3,4,5-tetrahydrobenzo[f][1,2,5]thiadiazepin-8-yl)-2-fluorobenzoic acid]",100 to 1000
16,CN1[C@H](C2CCCCC2)CNc2cc(C34CC(C3)C4)c(-c3ccc(F)c(C(=O)O)c3)cc2S1(=O)=O [Example 585],100 to 1000

row,Structure (SMILES),EC50 [nM]
1,CN1[C@H](C2CCCCC2)CNc2cc(C3CCC3)c(-c3ccc(F)c(C(=O)O)c3)cc2S1(=O)=O [Example 586],100 to 1000
2,CN1[C@H](C2CCCCC2)CN(c2ccccc2)c2cc(C34CC(C3)C4)c(-c3ccc(F)c(C(=O)O)c3)cc2S1(=O)=O [Example 587],100 to 1000
3,CN1[C@H](C2CCCCC2)CN(c2ccccc2)c2cc(C3COC3)c(-c3ccc(F)c(C(=O)O)c3)cc2S1(=O)=O [Example 588],100 to 1000
4,CN1[C@H](C2CCCCC2)CN(c2ccccc2)c2cc(C3CCN(C(=O)OC(C)(C)C)CC3)c(-c3ccc(F)c(C(=O)O)c3)cc2S1(=O)=O [Example 590],100 to 1000
5,CN1[C@H](C2CCCCC2)CN(c2ccccc2)c2cc(C3CCOCC3)c(-c3ccc(F)c(C(=O)O)c3)cc2S1(=O)=O [Example 591],100 to 1000
6,CC(C)C[C@@H]1CN(c2ccccc2)c2cc(C3CCN(C(=O)OC(C)(C)C)CC3)c(-c3ccc(F)c(C(=O)O)c3)cc2S(=O)(=O)N1C [Example 592],100 to 1000
7,CN1[C@H](C2CCCCC2)CN(c2ccccc2)c2cc(C3CCN(C(=O)OC(C)(C)C)C3)c(-c3ccc(F)c(C(=O)O)c3)cc2S1(=O)=O (stereo partly shown) [Example 593],100 to 1000
8,CN1[C@H](C2CCCCC2)CN(c2ccccc2)c2cc(C3CN(C(=O)OC(C)(C)C)C3)c(-c3ccc(F)c(C(=O)O)c3)cc2S1(=O)=O [Example 594],100 to 1000
9,CN1[C@H](C2CCCCC2)CN(c2ccccc2)c2cc(C3CCNCC3)c(-c3ccc(F)c(C(=O)O)c3)cc2S1(=O)=O [Example 596],> 1000
10,CC(=O)N1CCC(c2cc3c(cc2-c2ccc(F)c(C(=O)O)c2)S(=O)(=O)N(C)[C@H](C2CCCCC2)CN3c2ccccc2)CC1 [Example 597],> 1000
11,CN1[C@H](C2CCCCC2)CN(c2ccccc2)c2cc(C3CCN(C(=O)c4cnn(C)c4)CC3)c(-c3ccc(F)c(C(=O)O)c3)cc2S1(=O)=O [Example 598],> 1000
12,CN1[C@H](C2CCCCC2)CN(c2ccccc2)c2cc(C3CCN(C(=O)c4ccno4)CC3)c(-c3ccc(F)c(C(=O)O)c3)cc2S1(=O)=O [Example 599],> 1000
13,COCCC(=O)N1CCC(c2cc3c(cc2-c2ccc(F)c(C(=O)O)c2)S(=O)(=O)N(C)[C@H](C2CCCCC2)CN3c2ccccc2)CC1 [Example 600],> 1000
14,CN1[C@H](C2CCCCC2)CN(c2ccccc2)c2cc(C3CCN(C(=O)C(F)(F)F)C3)c(-c3ccc(F)c(C(=O)O)c3)cc2S1(=O)=O (stereo partly shown) [Example 601],100 to 1000
15,CN1[C@H](C2CCCCC2)CN(c2ccccc2)c2cc(C#CC(C)(C)O)c(-c3ccc(F)c(C(=O)O)c3)cc2S1(=O)=O [Example 603],100 to 1000

# Other lines, results leading:
row,EC50 [nM],Structure (SMILES)
1,100 to 1000,CC(C)C[C@@H]1CN(c2ccccc2)c2cc(N(C)c3ccccc3F)c(-c3ccc(Cl)c(C(=O)O)c3)cc2S(=O)(=O)N1C [Example 556]
2,100 to 1000,CC(C)C[C@@H]1CN(c2ccccc2)c2cc(N3CCCc4ccccc43)c(-c3ccc(Cl)c(C(=O)O)c3)cc2S(=O)(=O)N1C [Example 557]
3,< 100,"CN1[C@H](C2CCCCC2)CN(c2ccccc2)c2cc(N3CCCCC3)c(-c3ccc(Cl)c(C(=O)O)c3)cc2S1(=O)=O [Example 558, (R)-2-chloro-5-(3-cyclohexyl-2-methyl-1,1-dioxido-5-phenyl-7-(piperidin-1-yl)-2,3,4,5-tetrahydrobenzo[f][1,2,5]thiadiazepin-8-yl)benzoic acid]"
4,100 to 1000,COC1CCN(c2cc3c(cc2-c2ccc(Cl)c(C(=O)O)c2)S(=O)(=O)N(C)[C@H](C2CCCCC2)CN3c2ccccc2)CC1 [Example 559]
5,< 100,"CCCC[C@@H]1CN(c2ccccc2)c2cc(Nc3ccccc3F)c(-c3cc(F)c(F)c(C(=O)O)c3)cc2S(=O)(=O)N1C [Example 560, (R)-5-(3-butyl-7-((2-fluorophenyl)amino)-2-methyl-1,1-dioxido-5-phenyl-2,3,4,5-tetrahydrobenzo[f][1,2,5]thiadiazepin-8-yl)-2,3-difluorobenzoic acid]"
6,100 to 1000,CC(C)C[C@@H]1CN(C(C)C)c2cc(Nc3ccccc3F)c(-c3ccc(F)c(C(=O)O)c3)cc2S(=O)(=O)N1C [Example 561]
7,< 100,"CSc1cc2c(cc1-c1cc(C)c(C(=O)O)s1)S(=O)(=O)N(C)[C@H](C1CCCCC1)CN2c1ccccc1 [Example 562, (R)-5-(3-cyclohexyl-2-methyl-7-(methylthio)-1,1-dioxido-5-phenyl-2,3,4,5-tetrahydrobenzo[f][1,2,5]thiadiazepin-8-yl)-3-methylthiophene-2-carboxylic acid]"
8,< 100,"CN1[C@H](C2CCCCC2)CNc2cc(-c3ccccc3F)c(-c3ccc(F)c(C(=O)O)c3)cc2S1(=O)=O [Example 569, (R)-5-(3-cyclohexyl-7-(2-fluorophenyl)-2-methyl-1,1-dioxido-2,3,4,5-tetrahydrobenzo[f][1,2,5]thiadiazepin-8-yl)-2-fluorobenzoic acid]"
9,< 100,"CC(C)C[C@@H]1CN(c2ccccc2)c2cc(-c3ccc(F)cc3)c(-c3ccc(F)c(C(=O)O)c3)cc2S(=O)(=O)N1C [Example 573, (R)-2-fluoro-5-(7-(4-fluorophenyl)-3-isobutyl-2-methyl-1,1-dioxido-5-phenyl-2,3,4,5-tetrahydrobenzo[f][1,2,5]thiadiazepin-8-yl)benzoic acid]"
10,< 100,CC(C)C[C@@H]1CN(c2ccccc2)c2cc(-c3cccc(F)c3)c(-c3ccc(F)c(C(=O)O)c3)cc2S(=O)(=O)N1C [Example 575]
11,< 100,CC(C)C[C@@H]1CN(c2ccccc2)c2cc(-c3ccccc3F)c(-c3ccc(F)c(C(=O)O)c3)cc2S(=O)(=O)N1C [Example 576]
12,< 100,CC(C)C[C@@H]1CN(c2ccccc2)c2cc(-c3cccnc3)c(-c3ccc(F)c(C(=O)O)c3)cc2S(=O)(=O)N1C [Example 580]
13,< 100,CN1[C@H](C2CCCCC2)CN(c2ccccc2)c2cc(C3CC(F)(F)C3)c(-c3ccc(F)c(C(=O)O)c3)cc2S1(=O)=O [Example 589]
14,< 100,"CN1[C@H](C2CCCCC2)CN(c2ccccc2)c2cc(C#Cc3ccsc3)c(-c3ccc(F)c(C(=O)O)c3)cc2S1(=O)=O [Example 602, (R)-5-(3-cyclohexyl-2-methyl-1,1-dioxido-5-phenyl-7-(thiophen-3-ylethynyl)-2,3,4,5-tetrahydrobenzo[f][1,2,5]thiadiazepin-8-yl)-2-fluorobenzoic acid]"
15,< 100,COC(C)(C)C#Cc1cc2c(cc1-c1ccc(F)c(C(=O)O)c1)S(=O)(=O)N(C)[C@H](C1CCCCC1)CN2c1ccccc1 [Example 604]
